Here are results for 23 compounds from patent US20160222021A1, “ARYL ETHER-BASE KINASE INHIBITORS” (BRISTOL-MYERS SQUIBB COMPANY, priority 2013, published 2016).

A value given as a limit tells only on which side of the number the result lay.

The target in test [1] is T1, GST-Xa-hAAK1 (Homo sapiens, UniProt Q2M2I8).
T1 construct: made in house
Kind of test: AAK1 Kinase Assay. The conditions noted are these: ATP 22 μM. Format: biochemical. On the procedure:
The assays were performed in U-bottom 384-well plates. The final assay volume was 30 μl prepared from 15 μl additions of enzyme and substrates (fluoresceinated peptide (5-FAM)-Aha-[…]-NH2 and ATP) and test compounds in assay buffer (10 mM Tris-HCL pH 7.4, 10 mM MgCl2, 0.01% Tween-20 and 1.0 mM DTT). The reactions were initiated by the combination of bacterially expressed, GST-Xa-hAAK1 with substrates and test compounds. The reactions were incubated at room temperature for 3 hours and terminated by adding 60 μl of 35 mM EDTA buffer to each sample. The reactions were analyzed on the Caliper LabChip 3000 (Caliper, Hopkinton, Mass.) by electrophoretic separation of the fluorescent substrate and phosphorylated product. […] The final concentration of reagents in the assays are ATP, 22 μM; (5-FAM)-Aha-[…]-NH2, 1.5 μM; GST-Xa-hAAK1, 3.5 nM; and DMSO, 1.6%. Dose response curves were generated to determine the concentration required inhibiting 50% of kinase activity (IC50). Compounds were dissolved at 10 mM in dimethylsulfoxide (DMSO) and evaluated at eleven concentrations. IC50 values were derived by non-linear regression analysis.

Test [2] addresses AAK1 (full length human) in HEK293F cells (Homo sapiens, UniProt Q2M2I8). Description: HEK293F Cell-Based Assay (phospho-mu2 Western blot). The conditions noted are these: 3 hours, IC50 ranges. On the procedure:
HEK293F cells were cultured in media containing DMEM (Gibco, cat. #11965), 10% FBS (SAFC Biosciences, cat. #12103C), 1×GPS (glutamine, penicillin and streptomycin). On day one, cells were plated on a 10 cm dish so that they are ˜80% confluent at time of transfection. Roughly 12 million cells were in a 10 cm dish at time of transfection. On day two, each dish was transfected with 48 ug DNA and 144 ul Lipofectamine 2000 (Invitrogen, cat. #11668-019). The DNA was comprised of a mixture (per 10 cm dish) containing 3 ug AAK1/HA/pIRES (full length human, NCBI accession no. NP_055726.2), 45 μg Flag/AP2MI/pcDNA (full length human), and 1.5 ml OPTI-MEM. The Lipofectamine 2000 is made up of a mixture (per 10 cm dish) containing 144 μl Lipofectamine 2000 and 1.5 ml OPTI-MEM. Each mixture was transferred to individual 15 ml tubes and incubated at RT for 5 minutes, and then the two mixes were combined and incubated at RT for 20 minutes. Growth media was then aspirated from each 10 cm plate and replaced with 10 ml of DMEM+10% FBS (no GPS). Finally, 3 ml DNA/Lipofectamine mix was added to each 10 cm dish and mix gently followed by incubate of plate overnight at 37° C. and 5% CO2.
On day three, compounds were diluted in 100% DMSO at 1000× final concentration, followed by 3-fold serial dilutions for a total of 5 concentrations tested. Four compounds were tested per 10 cm dish. One ul of each compound dilution was then pipetted into a deep-well, 96-well plate, followed by addition of 500 μl DMEM+0.5% FBS into each well for a 2× final concentration of each compound. Cells were resuspended in a 10 cm dish by simple pipetting (HEK293 cells come off the plate that easy at this point) and then transferred to a 50 ml conical tube and pelleted by centrifugation at 1000 rpm for 5 min. Cell pellets were then resuspended in 2.75 ml DMEM+0.5% FBS per 10 cm dish and 100 μl of cell suspension transferred into each well of 96-well TC plate. Finally, 100 μl of 2× compound diluted in DMEM+0.5% FBS was then added into wells containing cell suspension for a 1× final concentration. Plates were then incubated at 37° C. and 5% CO2 for 3 hours followed by transferring of cell suspensions from each well into 12-tube PCR strips. The PCR strips were spun in a tip rack at 1000 rpm for 5 minutes to pellet cells and media was then removed by pipetting without disturbing the cell pellet.
To prepare for Western Blot analysis, cell pellets were resuspend in 40 ul 1× LDS-PAGE sample buffer (Invitrogen, cat. # NP0008)+2× Halt phophatase and protease inhibitor cocktail (Thermo Scientific, cat. #1861284), followed by sonicating each with microtip sonicator set at 5 for 8-10 seconds. Five ul of 10× NuPage Sample Reducing Agent (with 50 mM DTT) was to each sample followed by heat denaturing at 70 C for 10 min on PCR machine. A total of 10 μl per sample was loaded into each lane of a 4-20% Tris-Glycine Criterion 26-well gel (Biorad, cat. #345-0034) for the phospho-mu2 blot and 10 μl per lane in a 4-12% Bis-Tris (+MES buffer) NuPAGE 26-well gel (Invitrogen, cat. # WG1403BX10) for the mu2 blot. For controls, 2 ng of phospho-mu2 or 20 ng mu2/Flag proteins were loaded in the last well of each gel. After SDS-PAGE, samples on each gel were transferred to PVDF membrane using an iBlot and membranes were blocked for one hour in TBST+5% milk, followed by wash 3× for 5-10 min with TBST. Criterion gels were probed with rabbit anti-phospho-mu2 (1:5000; a rabbit polyclonal antibody produced by New England Peptide and affinity purified at Lexicon) in TBST+5% BSA, whereas, NuPAGE gels were probed with mouse anti-Flag (1:500; Sigma, cat. # F1804) in TBST+5% milk, and these primary antibodies were incubated overnight at 4° C. on a rocker. […]
A general note: A western blot detects proteins with antibodies after separation by electrophoresis.

T1 sequence (Q2M2I8 whole entry): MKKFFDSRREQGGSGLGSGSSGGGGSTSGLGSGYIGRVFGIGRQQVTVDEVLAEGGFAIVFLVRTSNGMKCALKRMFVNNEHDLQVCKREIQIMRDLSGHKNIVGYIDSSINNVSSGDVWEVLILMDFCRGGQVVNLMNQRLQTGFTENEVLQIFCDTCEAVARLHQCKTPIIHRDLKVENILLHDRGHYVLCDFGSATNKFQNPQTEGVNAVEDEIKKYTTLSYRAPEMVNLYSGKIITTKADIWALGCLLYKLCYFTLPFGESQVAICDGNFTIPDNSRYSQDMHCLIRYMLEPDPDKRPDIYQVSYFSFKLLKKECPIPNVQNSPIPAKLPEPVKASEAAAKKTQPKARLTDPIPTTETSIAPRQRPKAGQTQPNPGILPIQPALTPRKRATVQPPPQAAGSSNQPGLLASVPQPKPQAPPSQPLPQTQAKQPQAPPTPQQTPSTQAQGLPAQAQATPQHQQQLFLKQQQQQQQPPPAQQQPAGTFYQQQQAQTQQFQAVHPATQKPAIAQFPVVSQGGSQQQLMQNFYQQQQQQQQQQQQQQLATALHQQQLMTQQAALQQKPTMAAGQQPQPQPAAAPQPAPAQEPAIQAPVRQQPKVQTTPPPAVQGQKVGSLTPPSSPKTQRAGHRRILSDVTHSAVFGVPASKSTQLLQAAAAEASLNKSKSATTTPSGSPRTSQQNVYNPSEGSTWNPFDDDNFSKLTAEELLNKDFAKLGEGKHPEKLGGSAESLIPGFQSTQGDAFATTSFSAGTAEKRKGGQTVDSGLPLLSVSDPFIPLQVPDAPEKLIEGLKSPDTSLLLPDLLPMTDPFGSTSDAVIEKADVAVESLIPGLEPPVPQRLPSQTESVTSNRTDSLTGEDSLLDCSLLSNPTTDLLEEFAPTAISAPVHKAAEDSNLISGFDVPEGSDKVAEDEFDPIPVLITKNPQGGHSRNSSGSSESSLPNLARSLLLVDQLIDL
AAK1 (full length human) in HEK293F cells, sequence (Q2M2I8 1-822 limits assumed): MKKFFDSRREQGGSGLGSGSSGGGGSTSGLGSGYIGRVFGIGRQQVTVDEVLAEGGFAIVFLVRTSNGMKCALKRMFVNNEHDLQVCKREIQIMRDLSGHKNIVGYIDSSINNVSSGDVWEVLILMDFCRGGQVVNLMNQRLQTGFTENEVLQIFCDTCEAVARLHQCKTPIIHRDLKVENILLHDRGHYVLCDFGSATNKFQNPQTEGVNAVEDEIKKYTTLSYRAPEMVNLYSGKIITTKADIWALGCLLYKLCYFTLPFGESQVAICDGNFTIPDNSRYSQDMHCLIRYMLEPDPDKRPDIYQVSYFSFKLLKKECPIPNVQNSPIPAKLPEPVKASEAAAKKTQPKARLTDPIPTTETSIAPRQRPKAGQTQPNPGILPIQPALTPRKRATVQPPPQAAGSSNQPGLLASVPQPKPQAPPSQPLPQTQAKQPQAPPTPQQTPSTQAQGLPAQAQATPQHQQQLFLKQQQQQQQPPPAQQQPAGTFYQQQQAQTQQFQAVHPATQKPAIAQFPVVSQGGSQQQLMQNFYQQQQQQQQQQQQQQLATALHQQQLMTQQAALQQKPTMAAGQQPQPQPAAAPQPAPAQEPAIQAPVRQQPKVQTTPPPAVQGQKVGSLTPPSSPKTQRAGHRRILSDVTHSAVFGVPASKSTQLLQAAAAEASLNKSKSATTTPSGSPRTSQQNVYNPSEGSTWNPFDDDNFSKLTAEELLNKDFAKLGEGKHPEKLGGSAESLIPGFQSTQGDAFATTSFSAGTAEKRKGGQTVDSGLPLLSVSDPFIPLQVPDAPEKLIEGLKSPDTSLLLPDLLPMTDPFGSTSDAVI

As for `COC(=O)Nc1cc2c(cn1)COc1cc(OCC(C)(N)CC(C)C)ccc1-2` (racemic) [Example 60, methyl (8-((2-amino-2,4-dimethylpentyl)oxy)-5H-chromeno[3,4-c]pyridin-2-yl)carbamate], the half-maximal inhibitory concentration (IC50) in test [1] (IC50 ranges) and in test [2] was 0.001 to 0.01 µM in each case.

As for `CC(=O)Nc1cc2c(cn1)COc1c-2ccc(OCC(C)(N)CC(C)C)c1OC(F)F` (racemic) [Example 65, N-(8-((2-amino-2,4-dimethylpentyl)oxy)-7-(difluoromethoxy)-5H-chromeno[3,4-c]pyridin-2-yl)acetamide], the IC50 in test [1] (IC50 ranges) and in test [2] was less than 0.001 µM throughout.

On to `COc1c(OCC(C)(N)CC(C)C)ccc2c1OCc1cnc(NC(C)=O)cc1-2` (racemic) [Example 66, N-(8-((2-amino-2,4-dimethylpentyl)oxy)-7-methoxy-5H-chromeno[3,4-c]pyridin-2-yl)acetamide], for which the half-maximal inhibitory concentration (IC50) (in general, the point on the concentration scale where inhibition reaches its midpoint) was less than 0.001 µM in test [1] (IC50 ranges) and 0.001 to 0.01 µM in test [2].

As to `COC(=O)Nc1cc2c(cn1)COc1c-2ccc(OCC(C)(N)CC(C)C)c1OC(F)F` (racemic) [Example 76, methyl (8-((2-amino-2,4-dimethylpentyl)oxy)-7-(difluoromethoxy)-5H-chromeno[3,4-c]pyridin-2-yl)carbamate], the IC50 was less than 0.001 µM in test [1] (IC50 ranges) and 0.001 to 0.01 µM in test [2].

For `CC(C)C[C@H](N)COc1cc2c(cc1Cl)-c1ccncc1[C@@H](C(F)(F)F)O2` (single isomer, unassigned) [Example 27b], the IC50 in test [1] (IC50 ranges) and in test [2] was 0.001 to 0.01 µM throughout.

Take `CC(C)C[C@H](N)COc1ccc2c(c1)OC(C(F)(F)F)c1cnccc1-2` (single isomer, unassigned; diastereomer 1) [Example 52]: the IC50 in test [1] (IC50 ranges) and in test [2] was 0.01 to 0.1 µM in each case.

As to `CC1Oc2cc(OCC(N)CC(C)(C)F)ccc2-c2ccncc21` (stereo not drawn) [Example 26, 4-fluoro-4-methyl-1-(5-methyl-5H-chromeno[3,4-c]pyridin-8-yloxy)pentan-2-amine], the half-maximal inhibitory concentration (IC50) was in the range of 0.001 to 0.01 µM in test [1] (IC50 ranges) and 0.01 to 0.1 µM in test [2].

As to `COC(=O)Nc1cc2c(cn1)COc1cc(OCC(C)(N)CC(C)C)ccc1-2` (stereo not drawn) [Example 70, methyl (8-((2-amino-2,4-dimethylpentyl)oxy)-5H-chromeno[3,4-c]pyridin-2-yl)carbamate], the IC50 in test [2] lay in the range of 0.001 to 0.01 µM.

As for `CC(=O)Nc1cc2c(cn1)COc1c-2ccc(OC[C@@](C)(N)CC(C)C)c1OC(F)F` [Example 87, (S)—N-(8-((2-amino-2,4-dimethylpentyl)oxy)-7-(difluoromethoxy)-5H-chromeno[3,4-c]pyridin-2-yl)acetamide], in test [1] (IC50 ranges), the IC50 is less than 0.001 µM.

For `CC(C)C[C@](C)(N)COc1ccc2c(c1Cl)OCc1cnc(N)cc1-2` [Example 88, (S)-8-((2-amino-2,4-dimethylpentyl)oxy)-7-chloro-5H-chromeno[3,4-c]pyridin-2-amine], in test [1] (IC50 ranges), the 50% inhibitory concentration (IC50) was less than 0.001 µM.

In the case of `COC(=O)Nc1cc2c(cn1)COc1c-2ccc(OC[C@@](C)(N)CC(C)C)c1OC(F)F` [Example 89, (S)-methyl (8-((2-amino-2,4-dimethylpentyl)oxy)-7-(difluoromethoxy)-5H-chromeno[3,4-c]pyridin-2-yl)carbamate], the IC50 in test [1] (IC50 ranges) was less than 0.001 µM.

Take `CC(C)C[C@](C)(N)COc1ccc2c(c1)OCc1cnc(N)cc1-2` [Example 90, (S)-8-((2-amino-2,4-dimethylpentyl)oxy)-5H-chromeno[3,4-c]pyridin-2-amine]: the concentration for half-maximal inhibition (IC50) in test [1] (IC50 ranges) was in the range of 0.001 to 0.01 µM.

As to `CC(=O)Nc1cc2c(cn1)COc1c-2ccc(OC[C@@](C)(N)CC(C)C)c1Cl` [Example 91, (S)—N-(8-((2-amino-2,4-dimethylpentyl)oxy)-7-chloro-5H-chromeno[3,4-c]pyridin-2-yl)acetamide], the IC50 in test [1] (IC50 ranges) was less than 0.001 µM.

Regarding `COC(=O)Nc1cc2c(cn1)COc1c-2ccc(OC[C@@](C)(N)CC(C)C)c1Cl` [Example 92, (S)-methyl (8-((2-amino-2,4-dimethylpentyl)oxy)-7-chloro-5H-chromeno[3,4-c]pyridin-2-yl)carbamate], the concentration for half-maximal inhibition (IC50) in test [1] (IC50 ranges) lay within 0.001 to 0.01 µM.

In the case of `CCOC(=O)Nc1cc2c(cn1)COc1c-2ccc(OC[C@@](C)(N)CC(C)C)c1Cl` [Example 93, (S)-ethyl (8-((2-amino-2,4-dimethylpentyl)oxy)-7-chloro-5H-chromeno[3,4-c]pyridin-2-yl)carbamate], in test [1] (numeric values), the 50% inhibitory concentration (IC50) came to 0.00089 µM.

Turning to `COC(=O)Nc1cc2c(cn1)COc1cc(OC[C@@](C)(N)CC(C)C)c(F)cc1-2` [Example 95, (S)-methyl (8-((2-amino-2,4-dimethylpentyl)oxy)-9-fluoro-5H-chromeno[3,4-c]pyridin-2-yl)carbamate], in test [1] (numeric values), the IC50 is 0.0021 µM.

Turning to `[2H]C1([2H])Oc2cc(OC[C@@](C)(N)CC(C)C)ccc2-c2cc(NC(=O)OC)ncc21` [Example 97, (S)-methyl (8-((2-amino-2,4-dimethylpentyl)oxy)-5,5-deutero-5H-chromeno[3,4-c]pyridin-2-yl)carbamate], the half-inhibitory concentration (IC50) in test [1] (IC50 ranges) was in the range of 0.001 to 0.01 µM.

With `CC(=O)Nc1cc2c(cn1)COc1cc(OC[C@@](C)(N)CC(C)C)cc(F)c1-2` [Example 98, (S)—N-(8-((2-amino-2,4-dimethylpentyl)oxy)-10-fluoro-5H-chromeno[3,4-c]pyridin-2-yl)acetamide], the concentration for half-maximal inhibition (IC50) in test [1] (IC50 ranges) is 0.001 to 0.01 µM.

For the compound `CC(C)C[C@](C)(N)COc1cc(F)c2c(c1)OCc1cnc(N)cc1-2` [Example 99, (S)-8-((2-amino-2,4-dimethylpentyl)oxy)-10-fluoro-5H-chromeno[3,4-c]pyridin-2-amine], the 50% inhibitory concentration (IC50) in test [1] (IC50 ranges) fell in the range of 0.001 to 0.01 µM.

Turning to `CC(=O)Nc1cc2c(cn1)COc1cc(OC[C@H](CC(C)C)NC(C)=O)ccc1-2` [Example 100, (S)—N-(8-((2-acetamido-4-methylpentyl)oxy)-5H-chromeno[3,4-c]pyridin-2-yl)acetamide], the IC50 in test [1] (IC50 ranges) lay in the range of 0.1 to 1.2 µM.

Take `CC(=O)Nc1cc2c(cn1)COc1cc(OC[C@H](CC(C)C)NS(C)(=O)=O)ccc1-2` [Example 101, (S)—N-(8-((4-methyl-2-(methylsulfonamido)pentyl)oxy)-5H-chromeno[3,4-c]pyridin-2-yl)acetamide]: in test [1] (IC50 ranges), the IC50 was 0.01 to 0.1 µM.

For the compound `Cc1cc2c(cn1)c(=O)oc1cc(OC[C@@](C)(N)CC(C)C)ccc12` [Example 102, (S)-8-((2-amino-2,4-dimethylpentyl)oxy)-2-methyl-5H-chromeno[3,4-c]pyridin-5-one], the IC50 in test [1] (numeric values) is 0.556 µM.

Take `Cc1cc2c(cn1)c(=O)oc1cc(OC[C@@](C)(N)CC(C)C)c(Cl)cc12` [Example 103, (S)-8-((2-amino-2,4-dimethylpentyl)oxy)-9-chloro-2-methyl-5H-chromeno[3,4-c]pyridin-5-one]: in test [1] (IC50 ranges), the IC50 fell in the range of 0.1 to 1.2 µM.
